Where a name gives a salt, the structure may show the parent alone. Read-outs that look alike come from different tables or passages of the source.
Assays:
[1] = test system: C6 (rat) astrocytic line; experiment: C6 oxidative stress assay (serum withdrawal, DCF); settings: for Lowest dose with toxicity: C6; for IC50: C6, 24 h pre-treatment, serum withdrawal, DCF; for Maximal % reduction in Oxidative stress: C6, DCF fluorescence
Method: (§1) A simple oxidative stress assay was used to determine whether preconditioning with NRF2-ARE inducing drugs could protect against a subsequent oxidative stress insult (serum withdrawal). The NSC34, C6 and 1321N1 cells were plated in 96 well tissue culture plates to achieve 30% confluency. […] Media was then replaced with serum free, phenol free media for 5 hrs. […] Cell survival assay was then performed on the cells as protection is measured as % reduction in DCF signal, therefore data points were excluded where a decrease in cell number was measured.
(§2) Briefly methylthiazolyldiphenyl-tetrazolium bromide (MTT) was added to the cells and a blank well to a final concentration 0.5 mg/ml and incubated at 37° C. for 1-3 hrs depending on the cell line used.

[2] = test system: NRF2-ARE pathway in the CHO 4× ARE-TK cell line; experiment: ARE reporter assay in CHO 4×ARE-TK-GFP cell line (GFP induction, EthD1 toxicity); settings: for maximal fold induction: read-out: Average fold GFP induction at maximal response
Method: Chinese Hamster Ovary (CHO), NSC34 mouse motor neuronal cells, C6 (rat) and 1321N1 (human) astrocytic lines were routinely maintained in DMEM supplemented with 10% FBS and penicillin/streptomycin. […] These plasmids were transfected into CHO, C6 and 1321N1 cell lines using Lipofectamine 2000 (Invitrogen) and following 10-14 days of selection in 0.5 mg/ml G418 they were expanded and selected for basal eGFP expression using fluorescence activated cell sorting (BD, FACSAria) with two sequential cell sorts for each cell line. These mixed populations of stable transfectants with basal eGFP expression were used in subsequent assays and designated 4×ARE-TK-GFP for the ARE containing line and TK-GFP for the control cell line. […]
Confluent cultures of 4×ARE-TK-GFP CHO or TK-GFP CHO expressing cells in 96 or 384-well tissue-culture plates were treated with drug (0.01-100 µM in triplicate) or vehicle (0.1-1% DMSO) in FCS-free DMEM in triplicate for 24 hours. The media was removed and replaced with the same volume of PBS containing 0.3 μM EthD1. […] Non-linear regression was used to fit a sigmoidal dose-response curve on a semi-Log plot to calculate the EC50 using GraphPad Prism (GraphPad Software). The reporter assay was conducted in a similar fashion in C6 and 1321N1 astrocyte cell lines stably transfected with the 4×ARE-TK-GFP and TK-GFP constructs except that Eth D1 was added directly in the media and read prior to washing the cells once and reading the […] signal. […]
The compounds were applied in triplicate to confluent cells in 96 well plates in serum free medium for 24 hours and the induction of GFP measured in a fluorescence plate reader. […]

[3] = test system: NSC34 mouse motor neuronal cells; experiment: NSC34 oxidative stress assay (serum withdrawal, DCF); settings: for Lowest dose with toxicity: NSC34; for Maximal % reduction in Oxidative stress: NSC34, DCF fluorescence, negative = pro-oxidant
Method: as §1, §2

[4] = test system: 1321N1 (human) astrocytic line; experiment: 1321N1 oxidative stress assay (serum withdrawal, DCF); settings: for Lowest dose with toxicity: 1321N1; for Maximal % reduction in Oxidative stress: 1321N1, DCF fluorescence; for IC50: 1321N1, 24 h pre-treatment, serum withdrawal, DCF
Method: as §1, §2

[5] = read-out: Average EC50, CHO 4×ARE-TK-GFP, GFP induction, 24 h
[6] = Cricetulus griseus, 24 h, read-out: Average EC50
[7] = Cricetulus griseus, 24 h, read-out: Average EC50, CHO 4×ARE-TK-GFP, GFP induction, 24 h

Compound | Lowest dose with toxicity [1] | IC50 [1] [µM] | Lowest dose with toxicity ([2]; CHO ARE reporter assay) | Lowest dose with toxicity [3] | Lowest dose with toxicity [4] | Lowest dose with toxicity ([2]; Chinese hamster, 24 h) [µM] | maximal fold induction ([2]; Cricetulus griseus, 24 h) | IC50 [4] [µM] | also measured
methyl-7-deshydroxypyrogallin-4-carboxylate | none | 2.95 | 100 µM | 0.3 µM | none |  |  |  | Maximal % reduction in Oxidative stress [1]: 70%; Average fold GFP induction at maximal response ([2]; CHO 4×ARE-TK-GFP, 24 h): 2.83 fold; EC50 [2, 5]: 2050 µM; Maximal % reduction in Oxidative stress [3]: −23%; Maximal % reduction in Oxidative stress [4]: 45%
Oc1ccc(O)cc1 [hydroquinone, reference compound] | none |  |  | none | none | 100 | 2.95 |  | 
S=C=NCc1ccccc1 [Benzyl Isothiocyanate] | none |  | None | none | none |  | 1.81 |  | 
CC1=C2C(=CO[C@H](C)[C@H]2C)C(O)=C(C(=O)O)C1=O [Citrinin] | none | 20 | 30 µM | none | none |  | 3.26 | 0.338 | EC50 [2, 6]: 4.1 µM
ClC1=C(Cl)C2(Cl)C3C(Cl)C(Cl)CC3C1(Cl)C2(Cl)Cl (centres unmarked) [Chlordane] | none | 3.57 | 100 µM | 3 µM | none |  | 1.56 |  | EC50 [2, 6]: 9.18 µM
O=C1C=C2C=C[C@@H]3C[C@@]2(O1)[C@H]1CCCCN31 [Securinine] | none | 0.645 | 30 µM | none | none |  | 3 | 18.3 | EC50 [2, 6]: 2.12 µM
CC1=CC(=O)C(C(C)C)=CC1=O [Thymoquinone] | none |  |  | none | none | 30 | 2.58 |  | 
COc1ccc(/C=C/C(=O)c2ccccc2)cc1 [4 methoxychalcone] | none | 3.55 | 100 µM | none | none |  | 2.13 | 3.6 | EC50 [2, 6]: 15 µM
O=C(CCBr)N1CCN(C(=O)CCBr)CC1 [Pipobroman, reference compound] | none |  |  | none | 10 µM | 100 | 3.21 |  | 
Cc1cc(O)c(C)c(O)c1C(=O)O [3 methylorsellinic acid] | none |  |  | 0.3 µM | none | 100 | 2.87 |  | 
C=CC(C1=CC(=O)C=CC1=O)c1ccccc1 (centres unmarked) [Dalbergione] | none |  |  | none | none | 30 | 2.09 |  | 
3-alpha-hydroxygedinin |  | 3.22 | 100 µM |  |  |  |  |  | Maximal % reduction in Oxidative stress [1]: 42%; Average fold GFP induction at maximal response ([2]; CHO 4×ARE-TK-GFP, 24 h): 3.01 fold; Maximal % reduction in Oxidative stress [3]: 14%; Maximal % reduction in Oxidative stress [4]: 25%
CC(=O)CCC(=O)O [levulinc acid, Levulinic acid] | none |  |  | none | none |  | 2.94 |  | Lowest dose with toxicity [2]: None
CC(C)(C)c1cc(O)ccc1O [tBHQ, tert-Butyl Hydroquinone, reference compound] |  |  |  |  |  |  |  |  | toxicity at concentrations higher than peak expression [2]: signs of toxicity; fluorescence in the control TK-GFP cell line ([2]; control TK-GFP CHO cell line): No increase in fluorescence; concentration of peak ARE activation (GFP expression) ([2]; narrow window, 24 h, serum free medium): 10 µM
3β hydroxydeoxydesacetoxy-7-oxogedunin | none | 3.07 | 30 µM | 3 µM | none |  |  | 3.96 | Maximal % reduction in Oxidative stress [1]: 67%; Average fold GFP induction at maximal response ([2]; CHO 4×ARE-TK-GFP, 24 h): 2.55 fold; EC50 [2, 5]: 8.71 µM; Maximal % reduction in Oxidative stress [3]: 0%; Maximal % reduction in Oxidative stress [4]: 62%
Euphol acetate | none |  | 100 µM | none | none |  |  | 18 | Maximal % reduction in Oxidative stress [1]: 0%; Average fold GFP induction at maximal response ([2]; CHO 4×ARE-TK-GFP, 24 h): 2.20 fold; EC50 [2, 5]: ~99 µM; Maximal % reduction in Oxidative stress [3]: −43%; Maximal % reduction in Oxidative stress [4]: 38%
CN1CCc2cccc3c2[C@H]1Cc1ccc(O)c(O)c1-3 [Apomorphine hydrochloride, reference compound] | none |  |  | 10 µM | none | 100 | 1.9 |  | 
COc1ccc2c(c1)OC/C(=C/c1ccc(OC)c(OC)c1)C2=O [sappanone A trimethyl ether] | none |  | 100 µM | none | none |  |  | 0.279 | Maximal % reduction in Oxidative stress [1]: 27%; Average fold GFP induction at maximal response ([2]; CHO 4×ARE-TK-GFP, 24 h): 1.99 fold; EC50 [2, 5]: 3.5 µM; Maximal % reduction in Oxidative stress [3]: −60%; Maximal % reduction in Oxidative stress [4]: 40%
CCCCCc1c2c(cc(O)c1C(=O)O)OC(=O)c1c(cc(OC)cc1C(=O)CCCC)O2 [Lobaric acid] | none |  |  | none | none | 100 | 2.53 |  | 
CC1(C)C2CC(=O)O[C@@]3(C)C4=CC(=O)O[C@@H](c5ccoc5)[C@]4(C)CCC3[C@@]2(C)C=C[C@H]1O (some centres unmarked) [Deoxyandirobin lactone] | none |  |  | none | none | 100 | 3.03 |  | 
CC(=O)O[C@@H]1C[C@H]2C(C)(C)C(=O)C=C[C@]2(C)[C@H]2CC[C@]3(C)C(=CC(=O)O[C@H]3c3ccoc3)[C@@]21C [deoxygedunin] | none | 2.19 | 30 µM | 10 µM | 10 µM |  |  | 1.41 | Maximal % reduction in Oxidative stress [1]: 61%; Average fold GFP induction at maximal response ([2]; CHO 4×ARE-TK-GFP, 24 h): 1.82 fold; EC50 [2, 5]: 1.15 µM; Maximal % reduction in Oxidative stress [3]: 7%; Maximal % reduction in Oxidative stress [4]: 25%
OC[C@H]1O[C@@H](n2cnc3c(NCc4ccco4)ncnc32)[C@H](O)[C@@H]1O [kinetin riboside] | 10 µM | 3.84 |  | 3 µM | 3 µM | 30 | 1.97 | 0.246 | EC50 [2, 7]: 3.39 µM
CCc1cccc(CC)c1N(COC)C(=O)CCl [Alachlor] | none |  |  |  |  |  |  |  | 
O=C(/C=C/c1ccc(O)cc1)c1ccccc1 [4 hydroxychalcone] |  |  | None |  |  |  | 1.88 |  | EC50 [2, 7]: 3.53 µM
C=C(CC)C(=O)c1ccc(OCC(=O)O)c(Cl)c1Cl [Ethacrynic acid, reference compound] |  | 3.01 |  | 10 µM |  | 100 |  |  | 
CC(=O)O[C@@H]1CC2C(C)(C)C=CC(=O)[C@]2(C)C2CC[C@@]3(C)[C@H](c4ccoc4)OC(=O)C4OC43[C@@]21C (some centres unmarked) [Isogedunin] |  |  | None | 1 µM | none |  |  |  | Average fold GFP induction at maximal response ([2]; CHO 4×ARE-TK-GFP, 24 h): 3.11 fold; EC50 [2, 5]: 550 µM; Maximal % reduction in Oxidative stress [3]: 0%; Maximal % reduction in Oxidative stress [4]: 10%

From US20110251230A1, “THERAPEUTICS FOR NEUROLOGICAL DISORDERS” (UNIVERSITY OF SHEFFIELD, priority 2008, published 2011)
